Measured values as given in ChEMBL document CHEMBL1201862, “PubChem BioAssay data set” (2004).
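Cells were grown in 96-well plates and exposed to each compound for 48 hours at five concentrations; endpoints were interpolated linearly between bracketing concentrations, or set to the highest concentration if not reached. GI50 = concentration required for 50% inhibition of growth.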 Calls of active or inactive are those of the source. Cut-off read from the data, not from the text of the source: active = GI50 up to about 1.1 µM and inactive = higher.

Columns and labels:
Test in all cases: inhibition of tumour cell growth, NCI panel, 48 h
[1] = system: M14
[2] = system: K562
[3] = system: HT-29
[4] = system: LOX IMVI
[5] = system: IGROV-1
[6] = system: DU-145
[7] = system: SF-539
[8] = system: SR
[9] = system: EKVX
[10] = system: CAKI-1
[11] = system: MDA-MB-435
[12] = system: MDA-N
[13] = system: U-251
[14] = system: Hs-578T
[15] = system: HCC 2998
[16] = system: RXF 393
[17] = system: KM12
[18] = system: RPMI-8226
[19] = system: MCF7
[20] = system: HCT-15

| Compound | GI50 [1] | GI50 [2] | GI50 [3] | GI50 [4] | GI50 [5] | GI50 [6] | GI50 [7] | GI50 [8] | GI50 [9] | GI50 [10] | GI50 [11] | GI50 [12] | GI50 [13] | GI50 [14] | GI50 [15] | GI50 [16] | GI50 [17] | GI50 [18] | GI50 [19] | GI50 [20] [µM] |
| --- | --- | --- | --- | --- | --- | --- | --- | --- | --- | --- | --- | --- | --- | --- | --- | --- | --- | --- | --- | --- |
| CNC(=O)OCc1c2ccncc2c(C)c2c1[nH]c1ccccc12 | 1.18 µM (inactive) | 0.275 µM (active) | 0.215 µM (active) | 0.136 µM (active) | 0.182 µM (active) | 0.269 µM (active) | 0.207 µM (active) | < 0.01 µM (active) | 0.372 µM (active) | 0.141 µM (active) | 0.421 µM (active) | 0.501 µM (active) | 0.223 µM (active) | 0.413 µM (active) | 0.206 µM (active) | < 0.0385 µM (active) | 0.449 µM (active) | 0.134 µM (active) | 0.0455 µM (active) | 0.234 |
| COC(=O)/C=C(\C(=O)OC)c1cc(C)c2cc(C(C)C)ccc(C)c1-2 | 23.5 µM (inactive) | > 100 µM (inactive) | 13.3 µM (inactive) | 45.2 µM (inactive) | 85.9 µM (inactive) | 60.3 µM (inactive) | 30.5 µM (inactive) | > 100 µM (inactive) | 71 µM (inactive) | 47.9 µM (inactive) | 30 µM (inactive) | 19.5 µM (inactive) | 51.1 µM (inactive) | 42.7 µM (inactive) | 28 µM (inactive) | 41.4 µM (inactive) | 37.4 µM (inactive) | > 100 µM (inactive) | 24.9 µM (inactive) | 11.7 |
| CCCCN1C(=O)C[C@H]2[C@@H]3CCc4cc(OCCN5CCCC5)ccc4[C@H]3CC[C@]2(C)C1=O | 2.03 µM (inactive) | 1.74 µM (inactive) | 0.979 µM (active) | 3.19 µM (inactive) | 15.7 µM (inactive) | 13.9 µM (inactive) | 9.71 µM (inactive) | 3.79 µM (inactive) | 14.5 µM (inactive) | 7.96 µM (inactive) | 6.31 µM (inactive) | 4.38 µM (inactive) | 5.51 µM (inactive) | 13.2 µM (inactive) | 10.3 µM (inactive) | 1.89 µM (inactive) | 7.94 µM (inactive) | 2.96 µM (inactive) | 5.65 µM (inactive) | 6 |
| CC(NC(=O)C(N)CC(=O)O)NC(=O)N(C)C(C)(C)C (stereo not given) | > 100 µM (inactive) | > 100 µM (inactive) | > 100 µM (inactive) | > 100 µM (inactive) | > 100 µM (inactive) | > 100 µM (inactive) | > 100 µM (inactive) | > 100 µM (inactive) | > 100 µM (inactive) | > 100 µM (inactive) | > 100 µM (inactive) | > 100 µM (inactive) | > 100 µM (inactive) | > 100 µM (inactive) | > 100 µM (inactive) | > 100 µM (inactive) | > 100 µM (inactive) | > 100 µM (inactive) | > 100 µM (inactive) | > 100 |
| Cc1cc(N)ccc1/N=N\c1ccc(S(=O)(=O)CCOS(=O)(=O)O)cc1 | 0.513 µM (active) | 0.352 µM (active) | 0.767 µM (active) | 0.343 µM (active) | 0.713 µM (active) | 26 µM (inactive) | 2.46 µM (inactive) | 0.488 µM (active) | 27 µM (inactive) | 1.88 µM (inactive) | 0.216 µM (active) | 0.282 µM (active) | 3.05 µM (inactive) | 5.08 µM (inactive) | 2.01 µM (inactive) | 10.8 µM (inactive) | 2.87 µM (inactive) | 1 µM (active) | 0.614 µM (active) | 0.346 |
| c1ccc(C[n+]2ccc3c(c2)CCCC3)cc1 | 95.7 µM (inactive) | 11.7 µM (inactive) | 50.9 µM (inactive) | 92.7 µM (inactive) | > 100 µM (inactive) | > 100 µM (inactive) | > 100 µM (inactive) | > 100 µM (inactive) | 10.6 µM (inactive) | > 100 µM (inactive) | > 100 µM (inactive) | > 100 µM (inactive) | 55.1 µM (inactive) | 49.9 µM (inactive) | 22.9 µM (inactive) | > 100 µM (inactive) | 62.2 µM (inactive) | 65.9 µM (inactive) | 52.1 µM (inactive) | > 100 |
| Cc1sc2nc(N(C)C)oc(=O)c2c1C | > 100 µM (inactive) | 63.4 µM (inactive) | > 100 µM (inactive) | > 100 µM (inactive) | > 100 µM (inactive) | > 100 µM (inactive) | > 100 µM (inactive) | 40.8 µM (inactive) | 59.6 µM (inactive) | 76.9 µM (inactive) | > 100 µM (inactive) | > 100 µM (inactive) | > 100 µM (inactive) | > 100 µM (inactive) | > 100 µM (inactive) | 25 µM (inactive) | > 100 µM (inactive) | 41.3 µM (inactive) | > 100 µM (inactive) | 82.6 |
| Oc1ccc2ccccc2c1/C=N/Cc1c(O)ccc2ccccc12 | 44.5 µM (inactive) | 18.5 µM (inactive) | > 100 µM (inactive) | 48.1 µM (inactive) | 35.6 µM (inactive) | 41.4 µM (inactive) | 31.6 µM (inactive) | 27.2 µM (inactive) | 7.71 µM (inactive) | 87.7 µM (inactive) | 77.6 µM (inactive) | 51.1 µM (inactive) | 29 µM (inactive) | 69 µM (inactive) | 42.2 µM (inactive) | 1.39 µM (inactive) | 55.2 µM (inactive) | 12.6 µM (inactive) | 48.2 µM (inactive) | 29.4 |
